Activity calls are given as the source filed them. No cut-off for these calls is given here.
Columns and labels:
[1] = biological target: Free fatty acid receptor 1 (Homo sapiens, UniProt O14842); experiment: Agonist activity at human FFA1 expressed in CHO cells measured by FLIPR assay; format: functional, cell-based
[2] = biological target: T1, Peroxisome proliferator-activated receptor gamma (Homo sapiens, UniProt P37231); experiment: Agonist activity at human PPARgamma measured by dual luciferase reporter gene assay
T1 sequence (P37231 whole entry): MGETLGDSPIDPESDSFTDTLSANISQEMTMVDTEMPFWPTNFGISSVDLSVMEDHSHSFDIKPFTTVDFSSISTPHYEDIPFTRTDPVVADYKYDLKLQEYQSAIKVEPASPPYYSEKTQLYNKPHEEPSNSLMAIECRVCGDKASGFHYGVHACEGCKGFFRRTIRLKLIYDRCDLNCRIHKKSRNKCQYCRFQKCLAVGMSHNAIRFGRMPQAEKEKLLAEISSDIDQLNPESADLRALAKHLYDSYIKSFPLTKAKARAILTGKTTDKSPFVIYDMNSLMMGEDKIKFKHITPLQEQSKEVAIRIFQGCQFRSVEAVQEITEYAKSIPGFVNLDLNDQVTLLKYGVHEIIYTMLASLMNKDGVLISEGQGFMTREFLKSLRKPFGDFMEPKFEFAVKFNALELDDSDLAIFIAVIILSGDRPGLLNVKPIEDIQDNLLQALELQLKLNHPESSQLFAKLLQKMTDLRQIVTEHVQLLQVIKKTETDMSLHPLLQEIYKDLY

Mus musculus [3] = experiment: Hypolipidemic activity in Triton1339W-induced hyperlipidemic ICR mouse model assessed as reduction in plasma TG level at 80 mg/kg, administered once daily for 5 days; format: functional, organism-based; settings: time 5.0 day
Mus musculus [4] = experiment: Hypolipidemic activity in Triton1339W-induced hyperlipidemic ICR mouse model assessed as reduction in plasma TC level at 80 mg/kg, administered once daily for 5 days; format: functional, organism-based; settings: time 5.0 day
[5] = Clearance in rat liver microsomes in presence of NADPH measured by LC/MS analysis; format: ADME, Microsome; settings: read-out: CLH
[6] = Half-life in rat liver microsomes in presence of NADPH measured by LC/MS analysis; format: ADME, Microsome
Mus musculus [7] = experiment: Anti-NASH activity in high-fat/high-sugar diet and CCl4-induced nonalcoholic steatohepatitis male C57BL/6 mouse assessed as decrease in serum TG level at 100 mg/kg, po administered for 4 weeks; format: functional, organism-based
Mus musculus [8] = experiment: Anti-NASH activity in high-fat/high-sugar diet and CCl4-induced nonalcoholic steatohepatitis male C57BL/6 mouse assessed as increase in HDL level at 100 mg/kg, po administered for 4 weeks; format: functional, organism-based
Mus musculus [9] = experiment: Anti-NASH activity in high-fat/high-sugar diet and CCl4-induced nonalcoholic steatohepatitis male C57BL/6 mouse assessed as decrease in hepatic TG level at 100 mg/kg, po administered for 4 weeks; format: functional, organism-based
Mus musculus [10] = experiment: Anti-NASH activity in high-fat/high-sugar diet and CCl4-induced nonalcoholic steatohepatitis male C57BL/6 mouse assessed as decrease in liver non-esterified fatty acid contents at 100 mg/kg, po administered for 4 weeks; format: functional, organism-based
Mus musculus [11] = experiment: Anti-NASH activity in high-fat/high-sugar diet and CCl4-induced nonalcoholic steatohepatitis male C57BL/6 mouse assessed as decrease in disease activity score at 100 mg/kg, po administered for 4 weeks; format: functional, organism-based
Mus musculus [12] = experiment: Anti-NASH activity in high-fat/high-sugar diet and CCl4-induced nonalcoholic steatohepatitis male C57BL/6 mouse assessed as decrease in hepatocyte ballooning score at 100 mg/kg, po administered for 4 weeks; format: functional, organism-based
Mus musculus [13] = experiment: Anti-NASH activity in high-fat/high-sugar diet and CCl4-induced nonalcoholic steatohepatitis male C57BL/6 mouse assessed as decrease in lobular inflammation score at 100 mg/kg, po administered for 4 weeks; format: functional, organism-based
Mus musculus [14] = experiment: Anti-NASH activity in high-fat/high-sugar diet and CCl4-induced nonalcoholic steatohepatitis male C57BL/6 mouse assessed as decrease in F4/80 expression at 100 mg/kg, po administered for 4 weeks; format: functional, organism-based
Mus musculus [15] = experiment: Anti-NASH activity in high-fat/high-sugar diet and CCl4-induced nonalcoholic steatohepatitis male C57BL/6 mouse assessed as decrease in ACC mRNA expression at 100 mg/kg, po administered for 4 weeks; format: functional, organism-based
Mus musculus [16] = experiment: Anti-NASH activity in high-fat/high-sugar diet and CCl4-induced nonalcoholic steatohepatitis male C57BL/6 mouse assessed as decrease in SCD1 mRNA expression at 100 mg/kg, po administered for 4 weeks; format: functional, organism-based
Mus musculus [17] = experiment: Anti-NASH activity in high-fat/high-sugar diet and CCl4-induced nonalcoholic steatohepatitis male C57BL/6 mouse assessed as decrease in FAS mRNA expression at 100 mg/kg, po administered for 4 weeks; format: functional, organism-based
Mus musculus [18] = experiment: Anti-NASH activity in high-fat/high-sugar diet and CCl4-induced nonalcoholic steatohepatitis male C57BL/6 mouse assessed as decrease in SREBP-1C mRNA expression at 100 mg/kg, po administered for 4 weeks; format: functional, organism-based
Mus musculus [19] = experiment: Anti-inflammatory activity in high-fat/high-sugar diet and CCl4-induced nonalcoholic steatohepatitis male C57BL/6 mouse assessed as decrease in TNF-alpha mRNA expression at 100 mg/kg, po administered for 4 weeks; format: functional, organism-based
Mus musculus [20] = experiment: Anti-inflammatory activity in high-fat/high-sugar diet and CCl4-induced nonalcoholic steatohepatitis male C57BL/6 mouse assessed as decrease in IL-1beta mRNA expression at 100 mg/kg, po administered for 4 weeks; format: functional, organism-based
Mus musculus [21] = experiment: Anti-fibrotic activity in high-fat/high-sugar diet and CCl4-induced nonalcoholic steatohepatitis male C57BL/6 mouse assessed as decrease in COL1A1 mRNA expression at 100 mg/kg, po administered for 4 weeks; format: functional, organism-based
Mus musculus [22] = experiment: Antioxidant activity in high-fat/high-sugar diet and CCl4-induced nonalcoholic steatohepatitis male C57BL/6 mouse assessed as increase in catalase mRNA expression at 100 mg/kg, po administered for 4 weeks; format: functional, organism-based
Mus musculus [23] = experiment: Antioxidant activity in high-fat/high-sugar diet and CCl4-induced nonalcoholic steatohepatitis male C57BL/6 mouse assessed as increase in GPX1 mRNA expression at 100 mg/kg, po administered for 4 weeks; format: functional, organism-based
Mus musculus [24] = experiment: Antioxidant activity in high-fat/high-sugar diet and CCl4-induced nonalcoholic steatohepatitis male C57BL/6 mouse assessed as increase in SOD1 mRNA expression at 100 mg/kg, po administered for 4 weeks; format: functional, organism-based
[25] = Acute toxicity in ICR mouse assessed as change in serum ALB level at 500 mg/kg, IG; format: organism-based; settings: in vivo, po
[26] = Acute toxicity in ICR mouse assessed as change in serum AST level at 500 mg/kg, IG; format: organism-based; settings: in vivo, po
[27] = Acute toxicity in ICR mouse assessed as change in serum ALT level at 500 mg/kg, IG; format: organism-based; settings: in vivo, po
[28] = Acute toxicity in ICR mouse assessed as change in serum TBIL level at 500 mg/kg, IG; format: organism-based; settings: in vivo, po
[29] = Acute toxicity in ICR mouse assessed as change in serum urea level at 500 mg/kg, IG; format: organism-based; settings: in vivo, po
[30] = Acute toxicity in ICR mouse assessed as change in serum creatinine level at 500 mg/kg, IG; format: organism-based; settings: in vivo, po

Sequence of Free fatty acid receptor 1 (O14842 whole entry): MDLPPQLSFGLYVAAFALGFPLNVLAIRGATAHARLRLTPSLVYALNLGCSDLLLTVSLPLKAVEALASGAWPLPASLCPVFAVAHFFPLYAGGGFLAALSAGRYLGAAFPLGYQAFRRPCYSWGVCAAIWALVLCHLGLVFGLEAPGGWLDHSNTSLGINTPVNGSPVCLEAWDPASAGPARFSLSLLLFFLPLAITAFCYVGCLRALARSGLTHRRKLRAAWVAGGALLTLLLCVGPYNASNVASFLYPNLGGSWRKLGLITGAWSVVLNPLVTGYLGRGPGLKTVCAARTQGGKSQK

COc1ccc(/C=C/c2cc(OC)cc(OCc3ccc(OCC(=O)O)c(F)c3)c2)cc1
EC50 [1]: 1.5 µM
EC50 [2]: 28.5 µM
Activity (Mus musculus [3]): Active
Activity (Mus musculus [4]): Active
microsomal CLint [5]: 27.1 µL/min/mg
half-life [6]: 51.2 min
Activity (Mus musculus [7]): Active
Activity (Mus musculus [8]): Active
Activity (Mus musculus [9]): Active
Activity (Mus musculus [10]): Active
Activity (Mus musculus [11]): Active
Activity (Mus musculus [12]): Active
Activity (Mus musculus [13]): Active
Activity (Mus musculus [14]): Active
Activity (Mus musculus [15]): Active
Activity (Mus musculus [16]): Active
Activity (Mus musculus [17]): Active
Activity (Mus musculus [18]): Active
Activity (Mus musculus [19]): Active
Activity (Mus musculus [20]): Active
Activity (Mus musculus [21]): Active
Activity (Mus musculus [22]): Active
Activity (Mus musculus [23]): Active
Activity (Mus musculus [24]): Active
Activity [25]: Non-Toxic
Activity [26]: Non-Toxic
Activity [27]: Non-Toxic
Activity [28]: Non-Toxic
Activity [29]: Non-Toxic
Activity [30]: Non-Toxic

— ChEMBL document CHEMBL5154671 (Eur J Med Chem, 2022)
